Experimental data from PubChem BioAssay AID2060888 (Molecular Pharmacology Branch, DTP, NCI, 2025).

Tested on: 695427-040-R-J1-PDC complex spheroid viability
Assay: Anticancer human tumor 695427-040-R-J1-PDC patient-derived colon adenocarcinoma cell line growth inhibition [RAS]
Details: for IC50: curve of first compound; for viability, T/C: stronger effect = lower value; active means viability on the fitted dose curve at most 10% of control; inactive means the rest
From the text: RAS pathway inhibitors in Combinations in Complex Spheroids
A high-throughput screen of multi-cell type tumor spheroids was designed to identify active combinations of RAS pathway inhibitors and targeted small molecules. Complex spheroids include a stromal component modeled by human endothelial cells (HUVEC) and fibroblasts modeled by human mesenchymal stem cells (MSCs). The concentration ranges selected for each drug and investigational agent were based upon clinically achievable concentrations if the clinical Cmax of the agent was known.
Compounds. The drugs and investigational agents: abemaciclib (NSC768073), cobimetinib (NSC768068), divarasib (GDC6063, NSC841802), docetaxel (NSC628503), GDC-1971 (RLY-1971, NSC841576), gemcitabine (NSC613327), inavolisib (NSC800729), ipatasertib (NSC767898), KB-0742 (NSC834161), MRTX-1133 (NSC836407), osimertinib (NSC779217), RMC-4630 (NSC839698), RMC-6236 (NSC851965), RMC-6291 (NSC852671), Ro-3306 (NSC812927), sapanisertib (NSC764658), SN-38 (NSC673596), staurosporine (NSC755774), SY5609 (NSC837396), and tovorafenib (DAY101, NSC766906), were obtained from the National Cancer Institute (NCI) Developmental Therapeutics Program Chemical Repository. The FDA-approved anticancer drug set is available from the NCI Developmental Therapeutics Program. […] The stock solutions were prepared in dimethyl sulfoxide (DMSO, Sigma-Aldrich, St. Louis, MO, cat. D2650) at 800-fold the tested concentration and stored at -70 degrees C prior to their use. All drugs and investigational agents were tested over a range starting from a high concentration at or near the clinical Cmax and decreasing in half-log increments. If the clinical Cmax for an agent had not been determined, the highest concentration tested was 10 microM.
Cell Culture. All cells were maintained in an incubator at 37 degrees C and 5% CO2 with 95% humidity. The PDC lines were cultured according to standard operating procedures established by the NCI PDMR. All PDCs were thawed and cultured in Matrigel-coated flasks prepared with a working solution of 1X Ham's F-12 nutrient mix, without supplementation (Invitrogen, Waltham, MA, cat. 11765054), 100 U/mL penicillin-streptomycin (Invitrogen, cat. 15140122), and 2.5% Matrigel (Corning Inc., Corning, NY, cat. 354248) for the first three passages. The 362531-283-R-J2-PDC and 782815-120-R-J1-PDC lines were cultured in 6C/Colon 1B media, which includes advanced DMEM/F-12 (Thermo Fisher Scientific, cat. 12634028), 10 mM HEPES (Thermo Fisher Scientific, cat. 15630080), 1X GlutaMAX supplement (Thermo Fisher Scientific, cat. 35050061), 0.1 mg/mL primocin (InvivoGen, San Diego, CA, cat. ant-pm-2), 10% defined fetal bovine serum, heat inactivated (HyClone Laboratories Inc., Logan, UT, cat. SH30070.03HI), 50% L-WRN conditioned media (ATCC, cat. CRL-3276), 1.25 mM N-Acetyl-L-cysteine (Sigma-Aldrich, cat. A9165), 10 mM nicotinamide (Sigma-Aldrich, cat. N0636), 1X B-27 supplement (Thermo Fisher Scientific, cat. 17504044), 1X N-2 supplement (Thermo Fisher Scientific, cat. 17502048), 50 ng/mL human EGF (Thermo Fisher Scientific, cat. PHG0311), and 10 microM Y-27632 dihydrochloride (Tocris Bioscience, cat. 1254). The K12877-001-R-J1-PDC line was cultured in 6I media, which includes all 6C/Colon 1B media plus 10 ng/mL human FGF-10 (PeproTech, cat. 100-26), 1 ng/mL human FGF-2 (PeproTech, cat. 100-18B), 1 µM prostaglandin E2 (Tocris Bioscience, cat. 2296), […] hydrocortisone (Sigma-Aldrich, cat. H4001), and […] bovine insulin (Sigma-Aldrich, cat. I6634). The K86415-001-R-J1-PDC line was cultured in 6D media, which includes all 6C/Colon 1B media components minus the L-WRN conditioned media. The 485176-168-R4-J1-PDC was cultured in PANC media, which includes all 6C/Colon 1B media plus 100 ng/mL human FGF-10 (PeproTech, cat. 100-26), 500 nM SB-431542 (Selleckchem, cat. S1067), and 10 nM gastrin (Tocris Bioscience, cat. 3006). […]
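Further: viability read after seven days of drug exposure.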

CC1(C)CCC(Nc2ncc(C(F)(F)F)c(-c3c[nH]c4c(P(C)(C)=O)c(C#N)ccc34)n2)CN1 (centres undefined) + C#Cc1c(F)ccc2cc(O)cc(-c3ncc4c(N5CC6CCC(C5)N6)nc(OCC56CCCN5CC(F)C6)nc4c3F)c12
inactive: viability, T/C (second compound 0.0316 µM, first compound 0.000949 µM) 104% | viability, T/C (second compound 0.0316 µM, first compound 0.003 µM) 91.6% | viability, T/C (second compound 0.0316 µM, first compound 0.00949 µM) 84.4% | viability, T/C (second compound 0.0316 µM, first compound 0.03 µM) 79% | viability, T/C (second compound 0.0316 µM, first compound 0.0949 µM) 84.5% | viability, T/C (second compound 0.0316 µM, first compound 0.3 µM) 80.3% | viability, T/C (second compound 0.1 µM, first compound 0.000949 µM) 101% | viability, T/C (second compound 0.1 µM, first compound 0.003 µM) 87.8% | viability, T/C (second compound 0.1 µM, first compound 0.00949 µM) 84.3% | viability, T/C (second compound 0.1 µM, first compound 0.03 µM) 88.6% | viability, T/C (second compound 0.1 µM, first compound 0.0949 µM) 79% | viability, T/C (second compound 0.1 µM, first compound 0.3 µM) 73.2% | viability, T/C (second compound 0.316 µM, first compound 0.000949 µM) 87.2% | viability, T/C (second compound 0.316 µM, first compound 0.003 µM) 89.7% | viability, T/C (second compound 0.316 µM, first compound 0.00949 µM) 99.2% | viability, T/C (second compound 0.316 µM, first compound 0.03 µM) 74% | viability, T/C (second compound 0.316 µM, first compound 0.0949 µM) 76.8% | viability, T/C (second compound 0.316 µM, first compound 0.3 µM) 70.4% | viability, T/C (second compound 1 µM, first compound 0.000949 µM) 67.7% | viability, T/C (second compound 1 µM, first compound 0.003 µM) 64.5% | viability, T/C (second compound 1 µM, first compound 0.00949 µM) 59.9% | viability, T/C (second compound 1 µM, first compound 0.03 µM) 62.5% | viability, T/C (second compound 1 µM, first compound 0.0949 µM) 67.7% | viability, T/C (second compound 1 µM, first compound 0.3 µM) 57.8% | viability, T/C (second compound 3.16 µM, first compound 0.000949 µM) 66.8% | viability, T/C (second compound 3.16 µM, first compound 0.003 µM) 49.2% | viability, T/C (second compound 3.16 µM, first compound 0.00949 µM) 51.9% | viability, T/C (second compound 3.16 µM, first compound 0.03 µM) 48.6% | viability, T/C (second compound 3.16 µM, first compound 0.0949 µM) 48% | viability, T/C (second compound 3.16 µM, first compound 0.3 µM) 43.5% | viability, T/C (second compound 10 µM, first compound 0.000949 µM) 37.4% | viability, T/C (second compound 10 µM, first compound 0.003 µM) 39.2% | viability, T/C (second compound 10 µM, first compound 0.00949 µM) 43.2% | viability, T/C (second compound 10 µM, first compound 0.03 µM) 35.3% | viability, T/C (second compound 10 µM, first compound 0.0949 µM) 39.3% | viability, T/C (second compound 10 µM, first compound 0.3 µM) 34.3%
3.19 nM: IC50 (second compound 3.16 µM)
> 300 nM: IC50 (second compound 0.0316 µM) | IC50 (second compound 0.1 µM) | IC50 (second compound 0.316 µM) | IC50 (second compound 1 µM)
< 0.949 nM: IC50 (second compound 10 µM)

C=CC(=O)N1CCN(c2nc(OCC3CCCN3C)nc3c(F)c(-c4nc(N)cc(C)c4C(F)(F)F)c(Cl)cc23)C(C)C1 (centres undefined) + C#Cc1c(F)ccc2cc(O)cc(-c3ncc4c(N5CC6CCC(C5)N6)nc(OCC56CCCN5CC(F)C6)nc4c3F)c12
> 1000 nM: IC50 (second compound 0.0316 µM) | IC50 (second compound 0.1 µM) | IC50 (second compound 0.316 µM) | IC50 (second compound 1 µM)
< 3.16 nM: IC50 (second compound 10 µM)
498 nM: IC50 (second compound 3.16 µM)
inactive: viability, T/C (second compound 0.0316 µM, first compound 0.00316 µM) 88.4% | viability, T/C (second compound 0.0316 µM, first compound 0.01 µM) 104% | viability, T/C (second compound 0.0316 µM, first compound 0.0316 µM) 96.7% | viability, T/C (second compound 0.0316 µM, first compound 0.1 µM) 95% | viability, T/C (second compound 0.0316 µM, first compound 0.316 µM) 98.5% | viability, T/C (second compound 0.0316 µM, first compound 1 µM) 92.9% | viability, T/C (second compound 0.1 µM, first compound 0.00316 µM) 98.4% | viability, T/C (second compound 0.1 µM, first compound 0.01 µM) 89.5% | viability, T/C (second compound 0.1 µM, first compound 0.0316 µM) 98.5% | viability, T/C (second compound 0.1 µM, first compound 0.1 µM) 85.5% | viability, T/C (second compound 0.1 µM, first compound 0.316 µM) 94.7% | viability, T/C (second compound 0.1 µM, first compound 1 µM) 83.3% | viability, T/C (second compound 0.316 µM, first compound 0.00316 µM) 91.6% | viability, T/C (second compound 0.316 µM, first compound 0.01 µM) 88% | viability, T/C (second compound 0.316 µM, first compound 0.0316 µM) 95.5% | viability, T/C (second compound 0.316 µM, first compound 0.1 µM) 83.1% | viability, T/C (second compound 0.316 µM, first compound 0.316 µM) 89% | viability, T/C (second compound 0.316 µM, first compound 1 µM) 67% | viability, T/C (second compound 1 µM, first compound 0.00316 µM) 76.2% | viability, T/C (second compound 1 µM, first compound 0.01 µM) 78.4% | viability, T/C (second compound 1 µM, first compound 0.0316 µM) 67.2% | viability, T/C (second compound 1 µM, first compound 0.1 µM) 67.3% | viability, T/C (second compound 1 µM, first compound 0.316 µM) 60.4% | viability, T/C (second compound 1 µM, first compound 1 µM) 58.4% | viability, T/C (second compound 3.16 µM, first compound 0.00316 µM) 56.3% | viability, T/C (second compound 3.16 µM, first compound 0.01 µM) 53% | viability, T/C (second compound 3.16 µM, first compound 0.0316 µM) 62.9% | viability, T/C (second compound 3.16 µM, first compound 0.1 µM) 58.7% | viability, T/C (second compound 3.16 µM, first compound 0.316 µM) 52.6% | viability, T/C (second compound 3.16 µM, first compound 1 µM) 41.5% | viability, T/C (second compound 10 µM, first compound 0.00316 µM) 39.6% | viability, T/C (second compound 10 µM, first compound 0.01 µM) 39.8% | viability, T/C (second compound 10 µM, first compound 0.0316 µM) 37.8% | viability, T/C (second compound 10 µM, first compound 0.1 µM) 45.8% | viability, T/C (second compound 10 µM, first compound 0.316 µM) 38.6% | viability, T/C (second compound 10 µM, first compound 1 µM) 42.8%
